# Source: US20060104902A1, “Method of preselection patients for anti-VEGF, anti-HIF-1 or anti-thioredoxin therapy” (priority 2004, published 2006)
# What was measured:
# hypoxic cells = conditions: cited from earlier work
# current tumor model = conditions: by 24 h post-treatment; cited from earlier work
# HT-29 xenografts = conditions: up to three hours post-treatment; cited from earlier work
# mouse VEGF (mVEGF) = assay: Mouse VEGF ELISA in tumor and plasma of HT-29 xenograft mice after PX-12; type: in vivo, SCID mice
# Protocol: (§1) FIG. 12. Human VEGF levels (pg/μg protein) in HT-29 xenografts, and VEGF levels (pg/ml) in plasma after treatment with PX-12, 25 mg/kg ip (n=4 mice per time point).
# (§2) VEGF detection. Plasma was collected into EDTA tubes and tumors were removed and immediately snap frozen in liquid nitrogen. Tumors were then placed in buffer (10 mM Tris/HCl pH 7.4, and 100 mM NaCl) and homogenized using a PowerGen 125, Fisher Scientific, Pittsburgh, Pa. The suspension was then centrifuged twice at 8,000×g at 4° C. for 15 min. Protein was quantitated in supernatant using the Pierce BCA assay. VEGF levels were quantitated in plasma and tumor lysates using both human (hVEGF) and mouse VEGF […] ELISAs (R&D systems, Minneapolis, Minn.), according the manufactures' instructions.
# (§3) This example illustrates the effects of PX-12 on plasma and tumor VEGF levels, as measured by ELISA assays. In these xenografts, hVEGF is derived from the tumor and mVEGF from the host vasculature and stromal tissue, resulting in considerably higher hVEGF than mVEGF in the tumor. Although the endothelium is mouse derived, hVEGF inhibition in xenograft models has been reported to cause obliteration of the host tumor vasculature, implying that hVEGF is active at mouse VEGF receptors VEGFRI (Flt-i) and VEGFR2 (KDR). Therefore, levels of both mouse and human VEGF were measured in the tumor and plasma samples collected.
# Some tumors are reported to secrete VEGF into the plasma which can then act on endothelial cells in a paracrine manner or on tumor cells in an autocrine loop if the tumor expresses the VEGF receptors VEGFRI or VEGFR2. Plasma hVEGF expression was too low to be detected in the plasma from the HT-29 xenografts.
# advanced malignancies = conditions: cited from earlier work
# human VEGF (hVEGF) = assay: Human VEGF ELISA in HT-29 xenograft tumors after PX-12; type: in vivo, SCID mice; conditions: PX-12 25 mg/kg ip
# Protocol: as §1, §2, §3
# human tumor xenografts = conditions: cited from earlier work
# HT-29 tumor xenografts = assay: DCE-MRI with Gd-BSA: tumor vascular permeability and vascular volume fraction; type: in vivo, SCID mice
# Trx-1 = biological target: T1, Trx-1 (Homo sapiens, UniProt P10599); conditions: cited from earlier work
# T1 sequence (P10599 1-105): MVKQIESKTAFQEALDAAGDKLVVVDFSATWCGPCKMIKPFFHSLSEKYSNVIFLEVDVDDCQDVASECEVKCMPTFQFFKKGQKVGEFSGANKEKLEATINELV
molecule,measurement,setting,value
C[N+](C)([O-])CCCNc1c2ccccc2nc2cccc([N+](=O)[O-])c12 [aliphatic N-oxide of nitacrine],selectivity for hypoxic cells,hypoxic cells,approximately 1500 fold
Cc1[nH]c(/C=C2\C(=O)Nc3ccccc32)c(C)c1CCC(=O)O [SU6668],fractional plasma volume,current tumor model,decrease
Cc1ccc2c(=O)c3cccc(CC(=O)O)c3oc2c1C [DMXAA],tumor perfusion,HT-29 xenografts,considerably decreased
"CCC(C)SSc1ncc[nH]1 (stereo not shown) [PX-12, 1-methylpropyl 2-imidazolyl disulfide]",mouse plasma VEGF levels,"mouse VEGF (mVEGF); 2 hours post treatment, PX-12 25 mg/kg ip",showed a decrease
same,mouse VEGF in plasma,"mouse VEGF (mVEGF); after 24 h of PX-12 treatment, 25 mg/kg ip, P<0.02",significant decrease
same,mouse VEGF in tumor,"mouse VEGF (mVEGF); starting at 2 h, not statistically significant at any time point, PX-12 25 mg/kg ip",only a small decrease
same,circulating levels of VEGF in patients,advanced malignancies; as soon as 4 hours post drug administration,decrease
same,antitumor activity in phase I study,advanced malignancies; patients with advanced malignancies,revealed antitumor activity
same,tumor VEGF levels,human VEGF (hVEGF); 2 or 12 hours post-treatment,no significant change
same,hVEGF levels within the tumors,human VEGF (hVEGF); after 24 hours of treatment,significant decrease
same,in vivo antitumor activity,human tumor xenografts; human tumor xenografts in SCID mice,in vivo antitumor activity
same,expression of HIF 1α and VEGF and microvessel density,human tumor xenografts; xenograft tumors,significant decreases
same,mean reduction in permeability,HT-29 tumor xenografts; 12 hours after PX-12 treatment,59.2%
same,mean reduction in permeability,HT-29 tumor xenografts; 24 h post-treatment with PX-12,51.6%
same,change in permeability (return to control values),"HT-29 tumor xenografts; 48 hours after PX-12, not significant",+3.4±17.6%
same,"vascular volume fraction of the tumor, control vs treated",HT-29 tumor xenografts; any time point (2-48 h) after PX-12,not significantly modified
same,mean reduction in tumor blood vessel permeability vs untreated tumors,HT-29 tumor xenografts; within 2 hours after PX-12 injection,63.4%
same,concentrations at which active as a Trx-1 inhibitor,Trx-1,submicromolar
"COc1ccc(/C=C\c2cc(OC)c(OC)c(OC)c2)cc1OP(=O)(O)O [CA4P, combretastatin A4 phosphate]",tumor perfusion,HT-29 xenografts,only a small decrease
"Avastin: human anti-VEGF antibody Avastin (Bevacizumab, Genentech) [reference compound]",vascular volume fraction VVf (%),"HT-29 tumor xenografts; 1 h post-Tx, HT-29, mean",4.4%
same,decrease in vascular volume fraction,"HT-29 tumor xenografts; one hour after injection, 20 μl/30 g i.v.",31.5%
same,decrease in vascular permeability,"HT-29 tumor xenografts; within an hour of injection, 20 μl/30 g i.v.",75%
